According to ChEMBL document CHEMBL5465560, “Selectivity Literature for EUbOPEN Chemogenomic Library” (2024):

Legend:
[1] = molecular target: Protein kinase C beta type (Homo sapiens, UniProt P05771); experiment: Selectivity interaction (Kinase panel (literature)) EUB0001199aCl PRKCB; conditions: at 1 µM
[2] = molecular target: T1, MAP/microtubule affinity-regulating kinase 4 (Homo sapiens) (UniProt Q96L34); experiment: Selectivity interaction (KinomeScan (DiscoverX)) EUB0000607a MARK4; conditions: at 10 µM
T1 sequence (whole entry): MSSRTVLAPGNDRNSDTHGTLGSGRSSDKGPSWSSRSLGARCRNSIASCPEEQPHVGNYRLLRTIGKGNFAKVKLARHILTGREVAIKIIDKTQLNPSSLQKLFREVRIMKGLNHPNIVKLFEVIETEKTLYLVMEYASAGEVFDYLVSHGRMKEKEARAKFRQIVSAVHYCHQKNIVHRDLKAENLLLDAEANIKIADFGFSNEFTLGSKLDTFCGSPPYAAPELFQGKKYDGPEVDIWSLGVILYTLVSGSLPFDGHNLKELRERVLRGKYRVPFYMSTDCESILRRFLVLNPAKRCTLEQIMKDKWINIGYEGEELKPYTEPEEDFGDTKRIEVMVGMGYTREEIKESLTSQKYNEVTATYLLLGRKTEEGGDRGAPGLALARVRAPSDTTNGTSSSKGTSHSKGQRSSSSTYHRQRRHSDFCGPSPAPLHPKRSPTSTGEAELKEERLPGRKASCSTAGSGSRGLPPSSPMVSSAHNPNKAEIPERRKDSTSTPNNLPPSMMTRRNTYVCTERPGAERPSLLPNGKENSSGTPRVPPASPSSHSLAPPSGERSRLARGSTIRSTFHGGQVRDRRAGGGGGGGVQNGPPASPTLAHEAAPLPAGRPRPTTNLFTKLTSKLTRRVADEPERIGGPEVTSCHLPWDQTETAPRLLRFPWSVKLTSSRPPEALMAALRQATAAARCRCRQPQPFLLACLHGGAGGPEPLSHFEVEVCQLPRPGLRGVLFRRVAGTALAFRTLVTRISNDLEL

[3] = molecular target: Proto-oncogene tyrosine-protein kinase Src (Homo sapiens, UniProt P12931); experiment: Selectivity interaction (KinomeScan (DiscoverX)) EUB0000607a SRC; conditions: at 10 µM
[4] = molecular target: Serine/threonine-protein kinase 38 (Homo sapiens) (UniProt Q15208); experiment: Selectivity interaction (ActivX KiNativ screen (kinase selectivity in THP-1 cell lysates)) EUB0000639a STK38; assay type: subcellular; conditions: lysate, at 1 µM
[5] = molecular target: Rho-associated protein kinase 1 (Homo sapiens) (UniProt Q13464); experiment: Selectivity interaction (ProQinase) EUB0000171b ROCK1
[6] = molecular target: Fibroblast growth factor receptor 1 (Homo sapiens, UniProt P11362); experiment: Selectivity interaction (KinaseProfiler screening (Millipore)) EUB0000601a FGFR1; conditions: at 3 µM
[7] = molecular target: Casein kinase I isoform epsilon (Homo sapiens, UniProt P49674); conditions: at 10 µM
[8] = molecular target: Phosphatidylinositol 3-kinase catalytic subunit type 3 (Homo sapiens, UniProt Q8NEB9); experiment: Selectivity interaction (KinomeScan (DiscoverX)) EUB0001049a PIK3C3; conditions: at 1 µM
Aurora kinase B = Aurora kinase B (Homo sapiens, UniProt Q96GD4); experiment: Selectivity interaction (Panel of kinases, GPCRs, ion channels and transporters (enzymatic assay)) EUB0000223bCl AURKB
[9] = molecular target: Mitogen-activated protein kinase 14 (Homo sapiens, UniProt Q16539); experiment: Selectivity interaction (KinomeScan (DiscoverX)) EUB0000655a MAPK14; conditions: at 10 µM
[10] = system: Tyrosine-protein kinase ABL1 (Homo sapiens), P00519 [F317I]; experiment: Selectivity interaction (KinomeScan (DiscoverX)) EUB0000045b ABL1; conditions: at 10 µM
[11] = molecular target: Mast/stem cell growth factor receptor Kit (Homo sapiens, UniProt P10721); experiment: Selectivity interaction (KinomeScan (DiscoverX)) EUB0001079a KIT; conditions: at 1 µM
[12] = system: eIF-2-alpha kinase GCN2 (Homo sapiens), Q9P2K8 [S808G]; conditions: at 10 µM
[13] = molecular target: Receptor tyrosine-protein kinase erbB-3 (Homo sapiens) (UniProt P21860); conditions: at 10 µM
[14] = molecular target: T2, Serine/threonine-protein kinase TAO2 (Homo sapiens) (UniProt Q9UL54); experiment: Selectivity interaction (ActivX KiNativ screen (ex vivo kinase selectivity in human PBMCs)) EUB0001619a TAOK2; assay type: cell-based; conditions: PBMC, at 1 µM
T2 sequence (whole entry): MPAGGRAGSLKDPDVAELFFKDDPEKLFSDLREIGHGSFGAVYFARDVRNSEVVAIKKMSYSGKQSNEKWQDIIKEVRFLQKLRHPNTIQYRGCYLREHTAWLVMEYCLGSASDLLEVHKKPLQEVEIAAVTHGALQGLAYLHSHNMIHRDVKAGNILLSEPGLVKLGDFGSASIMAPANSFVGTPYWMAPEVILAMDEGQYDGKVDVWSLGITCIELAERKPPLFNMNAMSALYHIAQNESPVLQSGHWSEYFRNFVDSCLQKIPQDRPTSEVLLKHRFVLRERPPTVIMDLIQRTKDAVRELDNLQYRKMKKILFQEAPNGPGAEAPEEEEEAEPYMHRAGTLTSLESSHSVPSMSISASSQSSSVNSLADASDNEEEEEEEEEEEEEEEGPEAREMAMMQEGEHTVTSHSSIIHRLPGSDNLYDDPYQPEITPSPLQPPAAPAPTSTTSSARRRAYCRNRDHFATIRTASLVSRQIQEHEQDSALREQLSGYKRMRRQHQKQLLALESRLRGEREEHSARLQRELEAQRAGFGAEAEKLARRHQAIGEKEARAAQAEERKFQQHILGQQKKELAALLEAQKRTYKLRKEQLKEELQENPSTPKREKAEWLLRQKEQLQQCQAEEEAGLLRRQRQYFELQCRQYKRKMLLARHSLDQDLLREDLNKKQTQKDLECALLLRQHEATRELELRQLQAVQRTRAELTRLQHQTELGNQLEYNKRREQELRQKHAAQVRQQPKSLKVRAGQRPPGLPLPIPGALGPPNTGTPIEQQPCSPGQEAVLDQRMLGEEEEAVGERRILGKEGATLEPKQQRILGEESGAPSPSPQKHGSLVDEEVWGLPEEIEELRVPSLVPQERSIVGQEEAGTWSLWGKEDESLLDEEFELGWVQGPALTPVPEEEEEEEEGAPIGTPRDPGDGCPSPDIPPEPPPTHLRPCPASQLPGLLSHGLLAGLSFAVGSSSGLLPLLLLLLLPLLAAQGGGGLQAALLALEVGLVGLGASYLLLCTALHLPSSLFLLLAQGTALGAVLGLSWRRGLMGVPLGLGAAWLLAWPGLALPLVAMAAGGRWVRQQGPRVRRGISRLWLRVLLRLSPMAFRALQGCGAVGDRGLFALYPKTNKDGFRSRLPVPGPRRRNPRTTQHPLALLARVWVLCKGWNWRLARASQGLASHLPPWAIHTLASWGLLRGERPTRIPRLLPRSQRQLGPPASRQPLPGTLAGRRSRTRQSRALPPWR

Sequence of Rho-associated protein kinase 1 (Homo sapiens) (Q13464 2-1354 limits assumed): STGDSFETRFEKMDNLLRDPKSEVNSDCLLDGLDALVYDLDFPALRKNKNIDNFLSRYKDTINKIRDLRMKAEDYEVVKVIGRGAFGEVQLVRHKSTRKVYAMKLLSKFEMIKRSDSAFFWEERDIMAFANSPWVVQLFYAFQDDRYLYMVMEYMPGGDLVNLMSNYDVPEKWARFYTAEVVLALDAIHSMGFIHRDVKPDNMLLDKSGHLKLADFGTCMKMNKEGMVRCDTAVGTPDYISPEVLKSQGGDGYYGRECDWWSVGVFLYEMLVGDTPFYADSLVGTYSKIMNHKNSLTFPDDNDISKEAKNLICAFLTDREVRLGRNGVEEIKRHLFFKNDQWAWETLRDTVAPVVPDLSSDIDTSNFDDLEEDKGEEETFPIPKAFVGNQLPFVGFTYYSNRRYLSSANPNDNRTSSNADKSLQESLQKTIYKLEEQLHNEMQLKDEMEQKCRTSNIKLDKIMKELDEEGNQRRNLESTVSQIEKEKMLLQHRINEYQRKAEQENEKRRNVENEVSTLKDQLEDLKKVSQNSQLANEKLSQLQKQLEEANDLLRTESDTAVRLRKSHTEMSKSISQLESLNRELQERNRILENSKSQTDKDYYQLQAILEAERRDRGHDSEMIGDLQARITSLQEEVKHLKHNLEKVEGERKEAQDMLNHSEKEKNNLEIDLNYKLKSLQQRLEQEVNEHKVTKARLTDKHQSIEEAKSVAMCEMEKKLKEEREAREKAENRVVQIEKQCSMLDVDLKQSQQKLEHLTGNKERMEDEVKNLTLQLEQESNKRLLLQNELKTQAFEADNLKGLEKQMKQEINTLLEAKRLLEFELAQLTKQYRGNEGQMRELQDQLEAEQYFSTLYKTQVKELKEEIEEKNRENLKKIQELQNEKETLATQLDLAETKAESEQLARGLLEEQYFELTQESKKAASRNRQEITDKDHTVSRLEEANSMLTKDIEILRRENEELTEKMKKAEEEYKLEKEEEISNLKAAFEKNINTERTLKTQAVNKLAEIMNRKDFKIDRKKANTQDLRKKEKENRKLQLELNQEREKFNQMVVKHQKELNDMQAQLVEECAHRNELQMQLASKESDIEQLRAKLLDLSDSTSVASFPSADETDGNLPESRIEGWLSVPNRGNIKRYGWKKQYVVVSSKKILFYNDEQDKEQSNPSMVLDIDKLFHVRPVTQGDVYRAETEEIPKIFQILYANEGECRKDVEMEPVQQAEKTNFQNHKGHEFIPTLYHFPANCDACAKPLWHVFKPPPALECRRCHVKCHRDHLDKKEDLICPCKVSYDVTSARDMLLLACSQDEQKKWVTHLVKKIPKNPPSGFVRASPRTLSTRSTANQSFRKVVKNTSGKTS
Sequence of Fibroblast growth factor receptor 1 (P11362 22-822 limits assumed): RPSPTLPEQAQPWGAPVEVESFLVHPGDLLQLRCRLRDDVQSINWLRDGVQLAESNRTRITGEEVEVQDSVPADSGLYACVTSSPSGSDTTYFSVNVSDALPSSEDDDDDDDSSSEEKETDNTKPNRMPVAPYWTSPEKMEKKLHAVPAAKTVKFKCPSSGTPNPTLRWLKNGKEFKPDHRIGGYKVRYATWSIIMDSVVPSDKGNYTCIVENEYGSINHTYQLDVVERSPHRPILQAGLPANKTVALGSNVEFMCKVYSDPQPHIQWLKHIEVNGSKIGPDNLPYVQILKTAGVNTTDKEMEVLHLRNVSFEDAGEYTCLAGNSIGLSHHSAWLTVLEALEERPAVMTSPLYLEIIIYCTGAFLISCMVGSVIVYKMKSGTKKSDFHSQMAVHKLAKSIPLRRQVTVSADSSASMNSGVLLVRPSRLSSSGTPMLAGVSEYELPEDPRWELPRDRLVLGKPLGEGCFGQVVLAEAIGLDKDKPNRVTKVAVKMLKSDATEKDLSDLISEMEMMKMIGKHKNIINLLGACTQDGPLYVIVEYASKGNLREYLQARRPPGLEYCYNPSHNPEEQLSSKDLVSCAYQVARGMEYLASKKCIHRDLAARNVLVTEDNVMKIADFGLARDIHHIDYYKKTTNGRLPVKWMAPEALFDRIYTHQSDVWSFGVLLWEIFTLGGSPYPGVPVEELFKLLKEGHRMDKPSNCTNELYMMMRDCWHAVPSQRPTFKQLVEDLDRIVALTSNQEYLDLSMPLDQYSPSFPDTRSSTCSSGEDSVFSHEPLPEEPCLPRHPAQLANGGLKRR
Sequence of Receptor tyrosine-protein kinase erbB-3 (Homo sapiens) (P21860 whole entry): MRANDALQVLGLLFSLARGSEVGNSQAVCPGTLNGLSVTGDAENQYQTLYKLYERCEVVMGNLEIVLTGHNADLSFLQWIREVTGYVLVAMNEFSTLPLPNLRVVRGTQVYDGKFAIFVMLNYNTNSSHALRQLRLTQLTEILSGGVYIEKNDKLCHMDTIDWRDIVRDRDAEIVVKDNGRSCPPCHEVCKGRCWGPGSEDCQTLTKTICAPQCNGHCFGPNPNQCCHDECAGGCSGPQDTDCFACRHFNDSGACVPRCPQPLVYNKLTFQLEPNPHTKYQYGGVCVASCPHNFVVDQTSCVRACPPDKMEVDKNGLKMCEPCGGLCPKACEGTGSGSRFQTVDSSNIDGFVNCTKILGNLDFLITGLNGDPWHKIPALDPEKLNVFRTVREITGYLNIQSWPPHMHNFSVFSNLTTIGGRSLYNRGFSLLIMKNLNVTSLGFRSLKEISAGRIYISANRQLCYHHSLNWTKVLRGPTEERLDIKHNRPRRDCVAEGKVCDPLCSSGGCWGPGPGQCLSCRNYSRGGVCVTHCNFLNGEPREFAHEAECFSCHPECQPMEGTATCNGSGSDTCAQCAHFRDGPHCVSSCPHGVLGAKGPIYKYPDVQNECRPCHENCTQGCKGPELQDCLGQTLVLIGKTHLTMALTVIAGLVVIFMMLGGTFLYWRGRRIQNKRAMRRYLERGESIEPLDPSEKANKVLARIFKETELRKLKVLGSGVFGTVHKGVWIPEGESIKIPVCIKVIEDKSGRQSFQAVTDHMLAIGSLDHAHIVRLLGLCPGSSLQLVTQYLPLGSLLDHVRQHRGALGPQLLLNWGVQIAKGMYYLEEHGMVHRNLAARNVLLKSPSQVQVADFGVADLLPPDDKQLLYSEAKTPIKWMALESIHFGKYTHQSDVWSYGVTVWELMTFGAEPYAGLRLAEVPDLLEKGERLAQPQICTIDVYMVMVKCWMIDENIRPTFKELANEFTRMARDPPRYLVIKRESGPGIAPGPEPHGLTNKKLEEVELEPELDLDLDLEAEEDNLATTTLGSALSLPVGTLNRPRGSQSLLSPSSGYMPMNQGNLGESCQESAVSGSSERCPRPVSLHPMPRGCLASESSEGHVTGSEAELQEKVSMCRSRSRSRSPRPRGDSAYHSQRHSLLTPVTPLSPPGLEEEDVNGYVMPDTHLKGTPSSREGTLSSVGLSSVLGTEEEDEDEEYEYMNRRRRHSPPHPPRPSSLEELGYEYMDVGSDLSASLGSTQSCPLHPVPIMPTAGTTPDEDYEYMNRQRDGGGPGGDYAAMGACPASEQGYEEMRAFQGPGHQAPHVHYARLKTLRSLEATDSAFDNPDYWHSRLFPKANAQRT
Sequence of Proto-oncogene tyrosine-protein kinase Src (P12931 2-536 limits assumed): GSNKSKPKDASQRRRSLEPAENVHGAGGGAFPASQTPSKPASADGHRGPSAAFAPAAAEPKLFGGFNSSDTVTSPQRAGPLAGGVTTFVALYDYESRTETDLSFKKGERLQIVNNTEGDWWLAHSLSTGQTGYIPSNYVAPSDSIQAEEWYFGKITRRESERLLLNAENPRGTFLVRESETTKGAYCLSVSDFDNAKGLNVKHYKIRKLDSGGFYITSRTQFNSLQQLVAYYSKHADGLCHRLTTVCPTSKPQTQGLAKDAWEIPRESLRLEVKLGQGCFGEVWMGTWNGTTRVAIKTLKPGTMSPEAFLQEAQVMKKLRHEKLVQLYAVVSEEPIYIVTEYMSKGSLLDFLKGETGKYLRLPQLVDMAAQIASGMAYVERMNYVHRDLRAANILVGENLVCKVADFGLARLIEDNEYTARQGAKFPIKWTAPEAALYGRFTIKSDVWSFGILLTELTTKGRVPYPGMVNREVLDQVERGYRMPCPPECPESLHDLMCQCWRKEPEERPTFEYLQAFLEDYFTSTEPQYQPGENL
Sequence of Mast/stem cell growth factor receptor Kit (P10721 whole entry): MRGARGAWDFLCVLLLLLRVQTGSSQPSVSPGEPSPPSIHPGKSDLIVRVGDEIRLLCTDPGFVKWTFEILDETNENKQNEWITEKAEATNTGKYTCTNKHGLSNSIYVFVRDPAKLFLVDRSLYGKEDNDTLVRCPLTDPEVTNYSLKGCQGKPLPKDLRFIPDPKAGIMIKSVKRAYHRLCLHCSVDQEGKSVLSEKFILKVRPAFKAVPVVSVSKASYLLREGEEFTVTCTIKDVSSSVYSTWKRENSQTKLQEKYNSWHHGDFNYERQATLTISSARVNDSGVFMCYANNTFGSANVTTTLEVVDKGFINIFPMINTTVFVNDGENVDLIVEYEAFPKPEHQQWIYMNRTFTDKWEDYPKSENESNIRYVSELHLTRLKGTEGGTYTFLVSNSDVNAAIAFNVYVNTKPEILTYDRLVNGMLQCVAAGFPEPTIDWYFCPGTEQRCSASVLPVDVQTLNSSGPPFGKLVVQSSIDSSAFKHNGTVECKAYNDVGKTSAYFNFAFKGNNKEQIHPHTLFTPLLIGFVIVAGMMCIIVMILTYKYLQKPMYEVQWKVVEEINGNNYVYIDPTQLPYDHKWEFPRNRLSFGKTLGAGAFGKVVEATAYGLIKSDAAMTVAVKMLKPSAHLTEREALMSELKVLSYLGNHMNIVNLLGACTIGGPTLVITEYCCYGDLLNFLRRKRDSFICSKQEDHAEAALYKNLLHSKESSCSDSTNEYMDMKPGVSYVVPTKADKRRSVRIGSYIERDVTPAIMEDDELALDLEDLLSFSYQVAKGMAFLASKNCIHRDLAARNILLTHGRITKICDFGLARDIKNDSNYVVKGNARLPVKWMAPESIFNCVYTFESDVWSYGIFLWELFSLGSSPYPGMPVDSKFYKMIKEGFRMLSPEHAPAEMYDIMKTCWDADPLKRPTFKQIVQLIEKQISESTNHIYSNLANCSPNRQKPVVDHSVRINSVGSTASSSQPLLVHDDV

CN1Cc2nccc(-c3cn(C)nc3-c3ccc(F)cc3)c2C1=O showed a % of inhibition [1] of -2%.

CNC(=O)Nc1ccc(-c2nc(N3CC4CCC(C3)O4)c3cnn(C4CCC5(CC4)OCCO5)c3n2)cc1 gave a % of control [2] of 94% and a % of control [3] of 75%.

Compound CC[C@@H]1[C@H](F)C(=O)N[C@@H]1COc1nccc2cc(C(N)=O)c(OC)cc12 [ZIMLOVISERTIB] has a % of inhibition [4] of 65.8%.

C=CC(=O)Nc1cccc(C(=O)Nc2ccc(Nc3cc(-c4[nH]c(SC)nc4C)ccn3)cc2)c1 gave a % of control ([5]; at 1 µM) of 104% and a % of control ([5]; at 5 µM) of 80%.

Compound CCc1cc(Nc2nccc(-c3c(-c4ccc(OC)c(C(=O)Nc5c(F)cccc5F)c4)nc4ccccn34)n2)c(OC)cc1N1CCC(N2CCN(S(C)(=O)=O)CC2)CC1 has a % of inhibition [6] of 68%.

With COCC(=O)NC/C=C/c1ccc2ncnc(Nc3ccc(Oc4ccc(C)nc4)c(C)c3)c2c1 [CP-724714] the % of control [7] was 100%.

Compound COc1cc(Nc2nc(C)cc(-c3cnn4nc(OC)ccc34)n2)cc(C(F)(F)F)c1 has a % of control [8] of 100%.

COc1cc(C(=O)N2CC[C@@H](O)[C@@H](N)C2)cc2nc(-c3cc4ccccc4n3CC3CC3)n(C)c12 was tested, and the pXC50 (Aurora kinase B) was less than 4.5 M.

Work on CN(C)CCOc1ccc(-c2nc(-c3ccncc3)c(-c3ccc4c(c3)CC/C4=N\O)[nH]2)cc1 yielded a % of control [9] of 85%.

C=CC(=O)Nc1cc(-n2c(=O)ccc3cnc4ccc(-c5ccc(NS(C)(=O)=O)cc5)cc4c32)ccc1C gave a % of control [10] of 100%.

With Nc1cnc(N2CCc3cc(S(=O)(=O)Nc4c(F)cc(Cl)cc4F)cc(N4CCCC4=O)c32)nc1 [TP-020n] the % of control [11] was 100%.

Cc1cc([C@@H](C)Nc2ccccc2C(=O)O)c2nc(N3CCOCC3)cc(=O)n2c1 [AZD-6482] gave a % of control [12] of 100% and a % of control [13] of 100%.

Work on N#Cc1cccc(-c2c[nH]c3ncnc(N4CCOCC4)c23)c1 yielded a % of inhibition [14] of -3%.
